The source of these data is patent publication US12121565B2, “Methods of treatment of specific cancers with NLRP3 inhibitors and anti-PD1/PD-L1 antibodies” (Duke University, priority 2019, dated 2024).

Assay [1] has as its system autochthonous BRAFV600E PTEN−/− melanoma model. The experiment in a line: Autochthonous tumor study: tumor growth, Gr-1 IHC, flow cytometry of tumor-infiltrating cells, serial biopsy qRT-PCR. It is filed as in vivo, mouse. Here is the method: B6.Cg-Braf^tm1MmcmPten^tm1Hwu Tg(Tyr-cre/ERT2 H-2^b)13Bos/BosJ transgenic mice were subdermally injected with 4-Hydroxytomoxifen (4-HT) (Sigma, H6278-50MG CCF, 38.75 μg/mouse) to induce primary melanoma development at the base of the tail. Mice were randomly assigned to treatment cohorts once tumor volumes reached 64 mm^3 (19, 30, 50). Depending on the experiment, mice were treated with the following agents: CXCR2 inhibitor (AZD5069, AstraZeneca) at 100 mg/kg per os (po) twice daily, NLRP3 inhibitor (MCC950) 10 mg/kg i.p every other day, anti-PD1 ab (BioXCell) or rat IgG2a isotype control (BioXCell) at 200 μg by i.p. injection every 3 days, Dacarbazine (50 mg/kg or 75 mg/kg, Sigma-Aldrich, D2390) by i.p. injection once every other day. Melanoma growth was monitored by orthogonal caliper measurements every 3 days.
Tumors were resected and mechanically disaggregated by a gentleMACS dissociator (Miltenyi), filtered through 70-μm filters and digested with RPMI containing collagenase IV (1 mg/mL, Sigma-Aldrich), hyaluronidase (0.1 mg/mL, Sigma-Aldrich), and deoxyribonuclease (20 U/mL, Sigma-Aldrich) on a shaker at 250 rpm at 37° C. for 1 hour (23). Resected splenic and lymph node tissues were mechanically disaggregated using 1 cc syringe plunger and 40 μm filters followed by treatment with RBC lysis buffer (Sigma-Aldrich).
Paraffin-embedded tissues were processed and stained following standard protocols and imaged with a Zeiss CLSM 700 confocal microscope. The following antibodies were used in immunohistochemistry and immunofluorescence experiments: anti-Wnt5a (1 μg/ml), anti-Ly6G (0.5 μg/ml), anti-CD8a (0.5 μg/ml) and anti-CXCL5 (1 μg/ml). Tissue was permeabilized by incubation in 0.4% Triton-X in TBS for 20 min. Goat anti-rabbit conjugated to Alexa Fluor 564 and goat anti-mouse Alexa 488 were used as secondary antibodies for the appropriate primary antibody. For immunohistochemistry, anti-rat polymers were used as secondary antibodies and Warp Red chromogen detection system (BioCare, WR806S) was used for antigen visualization.
One million cells were stained with 1 μg per million cells of each fluorochrome conjugated antibodies or commercially available dyes according to the standard protocols and analyzed using a FACSCanto II or LSRII (Becton Dickinson). Cells were stained with Fc receptor blocking antibodies followed by a live/dead discriminator (CellTrace Violet, ThermoFisher, C34571), then by conjugated antibodies for 30 min at 4° C. Cell number was calculated by hemocytometer. Flow cytometry data was analyzed using Flowjo software v10.3.
Total RNA was isolated by RNeasy Plus Mini Kit (Qiagen, 74134). […] All data were normalized to Actb expression, and relative gene expression was quantitated based on the 2_DDCt method.
In general terms: Flow cytometry measures light scatter and fluorescence of single cells or particles in a stream.

Assay [2] deals with BRAFV600E PTEN−/− melanoma cell line. The experiment in a line: In vitro treatment of melanoma cell line followed by Western blot, qRT-PCR, IP, ASC polymerization or ELISA. It is filed as cell-based, mouse. From the text: Braf^V600EPten^−/− (male, BPD6 (40)), Braf^V600EPten^−/−-Wnt5a^KD (40), Braf^V600EPten^−/−-CXCL5^KD, Braf^V600EPten^−/−-PDL1^KD, Braf^V600EPten^−/−-NLRP3^KD, OVA-expressing Braf^V600EPten^−/−, BRAF^V600EPTEN^−/−-STAT3^CA, and Braf^V600EPten^−/−-NTC (40) cell lines were generated using shRNA-expressing lentiviral vectors and cultured as previously described (40): shNLRP3 (Sigma, SHCLN-NM_145827), shPDL1 (Sigma, SHCLND-NM_021893), shWnt5a (Sigma, SHCLND-NM_009524), shTLR4 (Sigma, SHCLNG-NM_025817, and pLKO.1-puro empty vector control (NTC) (Sigma, SHC001). Stable cell lines were selected by puromycin resistance (Sigma-Aldrich, P8833). Murine Lewis Lung Carcinoma (LLC) cell line is from ATCC (1704526). All cell lines were tested Mycoplasma-free by Duke University Cell Culture Facility shared services. All Braf^V600EPten^−/− cell lines and the LLC cell line were maintained at 37° C. in DMEM (Invitrogen) with 2 mM L-glutamine, supplemented with 10% fetal bovine serum, 100 units/ml penicillin. Depending on the experiment, cell lines were treated with Wnt5a (100-200 ng/ml, R&D Systems/Bio-techne, 645-WN-010), IFNγ (100 ng/ml, BioAbChem, 42-IFNg), anti-PD-L1 ab (1-2 μg/ml), Hsp70 (1 μM-10 μM, Enzo, ADI-ESP-502-D), Hsp70 inhibitor (ThermoFisher, VER155008), CLI-095 TLR4 inhibitor (3 μM-10 μM, Invivogen, tlrl-cli95), TLR2-IN-C29 TLR2 inhibitor (1 μM-10 μM, Glixx, GLXC-06203), MPLA TLR4 agonist (10 μM, Enzo, ALX-581-205-C100), LPS (Lipopolysaccharide) (10 ng, Sigma-Aldrich, L4391-1MG), ATP (1 mM-5 mM, Invivogen, tlrl-atpl), MCC950 NLRP3 inhibitor (2.5 μM-10 μM, Invivogen, inh-mcc), XAV939 β-catenin inhibitor (0.5-1.0 μM, Sigma-Aldrich, X3004-5MG), 2-Aminopurine PKR inhibitor (1 mM-5 mM, Invivogen, tlrl-apr), Verteporfin YAP inhibitor (0.1 μM-1 μM, R&D Systems/Bio-techne, 530510) or vehicle control either for 24 or 48 hrs prior to in vitro and in vivo experiments. Control siRNA (Santa Cruz, sc-37007). TLR4 siRNA (SantaCruz, sc-40261).
OT-1 CD8 cell activation was performed by incubating isolated splenocytes of OT-1 transgenic mice with IL-2 (100 U/ml) and SIINFEKL peptide (1 μg/ml, New England Peptide, BP10-915) for 3 days followed by magnetic bead CD8 purification according to the manufacturer's instructions (Miltenyi biotec, 130-104-075). Activated OT-1 CD8 cells were incubated with Braf^V600EPten^−/−-OVA cells and treated with anti-PD1 ab (1 μg/ml) for 72 hrs at a tumor cell:CD8^+ T cell ratio of 1:5. In separate experiments, Braf^V600EPten^−/− cells were treated with increasing concentrations of Dacarbazine (10 μmol-400 μmol).
Tumor tissue or cells were homogenized in NP40 lysis buffer (Sigma-Aldrich) supplemented with complete protease inhibitor and phosphatase inhibitor (Roche). Cells were lysed in Laemmli sample buffer after treatment and subjected to SDS-polyacrylamide gel electrophoresis. After transferring onto PVDF membranes (Bio-Rad), monoclonal and polyclonal primary antibodies and appropriate HRP-conjugated secondary antibodies were utilized for blotting. For the immunoprecipitation assays, cells were lysed with TBS buffer (50 mM Tris-HCl (pH 7.4), 150 mM NaCl) containing 0.5% Triton X-100, EDTA-free protease inhibitor cocktail and phosphatase inhibitor cocktail, precleared with protein A/G beads, and then incubated with 1 μg of appropriate antibodies or isotype control IgG on a rotator overnight at 4° C. then incubated with protein A/G-agarose at 4° C. for 1 hour. After 5 washes with TBS buffer, immunoprecipitated complexes were eluted in sample buffer by boiling and subjected to immunoblot analysis. Immunoblots were visualized by chemiluminescence substrate (ThermoFisher) and imaged by a ChemiDoc XRSplus system (BioRad). For the ASC polymerization assay, cells were lysed with TBS buffer containing 0.5% Triton X-100, EDTA-free protease inhibitor cocktail and phosphatase inhibitor cocktail. The lysates were centrifuged at 4,000 g at 4° C. for 15 min. […]
(In general: In western blotting, separated proteins are transferred to a membrane and probed.)

In assay [3] the test system is WM266 human melanoma cell line. The experiment in a line: In vitro treatment of human melanoma cell line followed by Western blot. To be noted: with or without TLR4 inhibitor; in a TLR4-dependent manner. The class given is cell-based. The text has this: FIG. 7A-G. The PD-L1/NLRP3/HSP70 PMN-MDSC adaptive recruitment pathway in human melanoma. (A) Supernatant HSP70 and caspase-1 p20 Western blot analysis following treatment of human WM266 melanoma cells with IFN-γ with or without anti-PD-L1 Ab. Blots are representative of 3 independent experiments. (B) Wnt5A Western blot analysis of HSP70-treated human WM266 melanoma cells with or without TLR4 inhibitor. Blots are representative of 3 independent experiments. (C) HSP70 and caspase-1 p20 Western blot analysis following treatment of human WM266 melanoma cells with ATP in the absence and presence of MCC950. Blots are representative of 2 independent experiments. (D) Cytolytic T cell markers correlated with ITGAM (CD11B), CD33, and NLRP3 gene expression in the melanoma TCGA-SKCM database. (E) RNA-Seq analysis of human melanoma tissue specimens collected before anti-PD-1 Ab therapy and at the time of disease progression on anti-PD-1 Ab therapy. TPM, transcripts per million. (F) Plasma HSP70 ELISA at week 0 and week 12 in patients with advanced melanoma undergoing anti-PD-1 Ab immunotherapy. (G) Change in HSP70 plasma levels following anti-PD-1 Ab immunotherapy in patients with advanced melanoma who were responders (R) or nonresponders (NR). The response was based on week-12 CT imaging. HSP70 changes were normalized to target tumor burden based on week-12 CT imaging. […]

The mark [4] stands for this setting: CXCR2 inhibitor 100 mg/kg po twice daily combined with anti-PD-1 Ab.

In the case of `C[C@@H](Oc1cc(NS(=O)(=O)N2CCC2)nc(SCc2cccc(F)c2F)n1)[C@@H](O)CO` [AZD5069], in assay [1] (setting [4]), the “CD8+ T cell tumor infiltration” value was “enhanced”, the “PMN-MDSC recruitment in response to anti-PD-1 Ab therapy” value is “significantly suppressed” and the tumor progression result was “suppressed”. The “time dependence of impact on tumor volume change rate” value in assay [1] (correlating with the period of PMN-MDSC influx into the tumor) is “more significant at later time points”.
With “HSP70: recombinant HSP70 (1 μM-10 μM, Enzo, ADI-ESP-502-D)”, the “receptor dependence of HSP70 stimulation of Wnt5a expression” value in assay [2] (pharmacologic inhibitor and shRNA silencing studies) is “TLR4 dependent”. Besides, the “Wnt5a expression after HSP70 stimulation (Western blot)” value in assay [2] (titrated concentrations, in a dose-dependent manner) was “induced upregulation”. Further, the “Wnt5a upregulation by HSP70” value in assay [3] was “induced”.
As for “IL-1β: recombinant IL-1β at titrated concentrations”, in assay [2] (titrated concentrations of recombinant IL-1β), the “induction of Wnt5a expression by tumor cells” value is “no evidence”.

B1: rWnt5a: recombinant Wnt5a (100-200 ng/ml, R&D Systems/Bio-techne, 645-WN-010) (protein, UniProt P41221 62-380, looked up)
Protein Wnt-5a: IIGAQPLCSQLAGLSQGQKKLCHLYQDHMQYIGEGAKTGIKECQYQFRHRRWNCSTVDNTSVFGRVMQIGSRETAFTYAVSAAGVVNAMSRACREGELSTCGCSRAARPKDLPRDWLWGGCGDNIDYGYRFAKEFVDARERERIHAKGSYESARILMNLHNNEAGRRTVYNLADVACKCHGVSGSCSLKTCWLQLADFRKVGDALKEKYDSAAAMRLNSRGKLVQVNSRFNSPTTQDLVYIDPSPDYCVRNESTGSLGTQGRLCNKTSEGMDGCELMCCGRGYDQFKTVQTERCHCKFHWCCYVKCKKCTEIVDQFVCK
On to B1, for which, in assay [2] (BRAFV600E PTEN−/− Wnt5aKD cells, qRT-PCR), the “diminished CXCL5 expression of Wnt5a-knockdown cell line after addition of rWnt5a” value is reported as “rescued”. Further, the “YAP stabilization (Western blot)” value in assay [2] (rWnt5a at various time points) was “induced”. Moreover, in assay [2] (rWnt5a versus vehicle control), the “Cxcl2, Cxcl5 and Cxcl1 gene expression (qRT-PCR)” value is reported as “induced”. Moreover, the “CXCL5 expression (Western blot)” value in assay [2] (rWnt5a, in a YAP-dependent manner) is reported as “stimulating”.
